According to DBAASP:
≈ marks a conversion by molar mass, not a printed value. Where “and” joins values, the source holds several entries; their conditions need not be identical. Equal entries are not always repeated. Values belong to the molecule of their own block, whether it stands above or below them.

Tests used:
Test in all cases: ≥ marks a high value that may be exact or a test limit, other limits are often not marked, values filed in µg/mL are converted to µM
[1] = test system: Pseudomonas aeruginosa KCTC 1637
[2] = test system: Bacillus subtilis KCTC 3068
[3] = test system: Pseudomonas aeruginosa CCARM 2095
[4] = test system: Escherichia coli KCTC 1682
[5] = test system: Pseudomonas aeruginosa CCARM 2109
[6] = test system: Staphylococcus aureus KCTC 1621
[7] = test system: Staphylococcus aureus CCARM 3543
[8] = test system: Salmonella typhimurium KCTC 1926
[9] = test system: Staphylococcus epidermidis KCTC 1917
[10] = test system: Staphylococcus aureus CCARM 3001
[11] = test system: Escherichia coli ATCC 25922
[12] = test system: Staphylococcus aureus ATCC 25923
[13] = test system: Escherichia coli ML-35
[14] = test system: Pseudomonas aeruginosa ATCC 27853
[15] = test system: Bacillus megaterium
[16] = test system: Salmonella enterica subsp. enterica serovar Typhimurium ATCC 14028
[17] = test system: Staphylococcus aureus IFO 12732
[18] = test system: Pseudomonas aeruginosa IFO 12582
[19] = test system: Bacillus subtilis IFO 3134
[20] = test system: Escherichia coli IFO 12734
[21] = test system: Mycobacterium tuberculosis CAS3
[22] = test system: Mycobacterium tuberculosis
[23] = test system: Mycobacterium tuberculosis FYX
[24] = test system: Mycobacterium tuberculosis WXY
[25] = test system: Mycobacterium tuberculosis H37Rv
[26] = test system: Nocardia asteroides
[27] = test system: Enterococcus faecalis 981
[28] = test system: Escherichia coli K91BK
[29] = test system: Bacillus subtilis var. niger ATCC 9372
[30] = test system: Bacillus anthracis Sterne 34F2
[31] = test system: Burkholderia thailandensis
[32] = test system: Listeria monocytogenes
[33] = test system: Escherichia coli UB1005
[34] = test system: Enterococcus faecalis ATCC 29212
[35] = test system: Salmonella enterica subsp. enterica serovar Typhimurium ATCC 14028s
[36] = test system: Staphylococcus epidermidis
[37] = test system: Pseudomonas aeruginosa K799

SMILES: CC(C)C[C@H](NC(=O)[C@H](CC(C)C)NC(=O)[C@H](Cc1c[nH]c2ccccc12)NC(=O)[C@H](CCCCN)NC(=O)[C@H](CC(C)C)NC(=O)[C@H](Cc1c[nH]c2ccccc12)NC(=O)[C@H](CC(C)C)NC(=O)[C@H](CCCCN)NC(=O)[C@H](Cc1c[nH]c2ccccc12)NC(=O)[C@H](CC(C)C)NC(=O)[C@@H](N)CCCCN)C(N)=O [KLWKLWLKWLL]
MIC [1]: 8 µM (≈ 12.2 µg/mL) | MIC [2]: 8 µM (≈ 12.2 µg/mL) | MIC [3]: 8 µM (≈ 12.2 µg/mL) | MIC [4]: 8 µM (≈ 12.2 µg/mL) | MIC [5]: 16 µM (≈ 24.4 µg/mL) | MIC [6]: 4 µM (≈ 6.1 µg/mL) | MIC [7]: 4 µM (≈ 6.1 µg/mL) | MIC [8]: 4 µM (≈ 6.1 µg/mL) | MIC [9]: 8 µM (≈ 12.2 µg/mL) | MIC [10]: 4 µM (≈ 6.1 µg/mL)

SMILES: CC[C@H](C)[C@H](NC(=O)[C@H](CCCCN)NC(=O)[C@H](CCCCN)NC(=O)[C@H](CC(C)C)NC(=O)[C@H](C)NC(=O)[C@H](CCC(=O)O)NC(=O)[C@H](CCCCN)NC(=O)[C@@H](NC(=O)[C@H](CCCCN)NC(=O)[C@H](CC(N)=O)NC(=O)[C@H](CCCN=C(N)N)NC(=O)[C@H](Cc1ccccc1)NC(=O)[C@H](CCCCN)NC(=O)[C@H](CCCN=C(N)N)NC(=O)[C@H](CC(C)C)NC(=O)[C@H](C)NC(=O)[C@H](CCCCN)NC(=O)[C@H](CCCN=C(N)N)NC(=O)[C@H](CC(C)C)NC(=O)CN)[C@@H](C)CC)C(=O)O [GLRKALRKFRNKIKEALKKI]
MIC [11]: 2 µM (≈ 4.82 µg/mL) | MIC [12]: 2 µM (≈ 4.82 µg/mL) | MIC [13]: 0.5 µM (≈ 1.21 µg/mL) | MIC [14]: 2 µM (≈ 4.82 µg/mL) | MIC [15]: 2 µM (≈ 4.82 µg/mL) | MIC [16]: 0.5 µM (≈ 1.21 µg/mL)

SMILES: CC[C@H](C)[C@H](NC(=O)[C@H](C)NC(=O)[C@@H]1CCCN1C(=O)[C@@H](NC(=O)[C@@H](NC(=O)[C@H](Cc1cnc[nH]1)NC(=O)[C@H](C)NC(=O)[C@H](C)NC(=O)[C@@H](NC(=O)[C@H](CCCCN)NC(=O)[C@H](C)NC(=O)[C@H](CC(C)C)NC(=O)[C@@H](NC(=O)CNC(=O)[C@H](Cc1ccccc1)NC(=O)[C@H](CC(C)C)NC(=O)CN)C(C)C)C(C)C)C(C)C)C(C)C)C(=O)N[C@@H](C)C(=O)N[C@@H](CCC(=O)O)C(=O)N[C@@H](Cc1cnc[nH]1)C(N)=O [GLFGVLAKVAAHVVPAIAEH]
MIC [17]: ≥ 64 µM | MIC [18]: ≥ 64 µM | MIC [19]: ≥ 64 µM | MIC [20]: ≥ 64 µM

SMILES: CC(C)C[C@H](NC(=O)[C@H](CCCCN)NC(=O)[C@H](CCCCN)NC(=O)[C@H](CO)NC(=O)[C@H](Cc1ccccc1)NC(=O)[C@H](CCCCN)NC(=O)CNC(=O)[C@@H]1CCCN1C(=O)CNC(=O)[C@H](CCCCN)NC(=O)[C@H](CC(C)C)NC(=O)CNC(=O)[C@H](CCCCN)NC(=O)[C@H](CC(C)C)NC(=O)CNC(=O)[C@H](Cc1c[nH]c2ccccc12)NC(=O)[C@@H](N)Cc1ccccc1)C(=O)O [FWGLKGLKGPGKFSKKL]
MIC [21]: ≥ 39.7 µM | MIC [11]: > 25 µM | MIC [22]: 14.8 µM (≈ 28 µg/mL) | MIC [23]: 19.8 µM (≈ 37.5 µg/mL) | MIC [24]: ≥ 39.7 µM | MIC [25]: 11.6 µM and 19.8 µM

SMILES: CC[C@H](C)[C@H](NC(=O)[C@H](CCCCN)NC(=O)[C@H](CCCN=C(N)N)NC(=O)CNC(=O)[C@H](CC(C)C)NC(=O)[C@H](CCCN=C(N)N)NC(=O)[C@H](CCCN=C(N)N)NC(=O)[C@H](CC(C)C)NC(=O)CNC(=O)[C@H](CCCN=C(N)N)NC(C)=O)C(=O)N[C@@H](C)C(=O)N[C@@H](Cc1cnc[nH]1)C(=O)NCC(=O)N[C@H](C(=O)N[C@@H](CCCCN)C(=O)N[C@@H](CCCCN)C(=O)N[C@@H](Cc1ccc(O)cc1)C(=O)NCC(=O)N1CCC[C@H]1C(=O)N[C@H](C(=O)N[C@H](C(=O)N[C@@H](CC(C)C)C(=O)N[C@@H](CCCN=C(N)N)C(=O)N[C@H](C(=O)N[C@H](C(=O)N[C@@H](CCCN=C(N)N)C(=O)N[C@H](C(=O)N[C@@H](C)C(=O)N[C@H](C(N)=O)[C@@H](C)O)[C@@H](C)O)[C@@H](C)CC)[C@@H](C)CC)C(C)C)[C@@H](C)O)C(C)C [RGLRRLGRKIAHGVKKYGPTVLRIIRTAT]
MIC [28]: ≥ 36.1 µM | MIC [29]: 3.13 µM (≈ 10.4 µg/mL) | MIC [30]: 2.51 µM (≈ 8.36 µg/mL) | MIC [31]: ≥ 100 µM

The remaining lines, values ahead:

MIC [17]: ≥ 64 µM | MIC [18]: ≥ 64 µM | MIC [19]: ≥ 64 µM | MIC [20]: ≥ 64 µM
SMILES: CC[C@H](C)[C@H](NC(=O)[C@H](C)NC(=O)[C@@H]1CCCN1C(=O)[C@@H](NC(=O)[C@@H](NC(=O)[C@H](Cc1cnc[nH]1)NC(=O)[C@H](C)NC(=O)[C@H](C)NC(=O)[C@@H](NC(=O)[C@H](CCCCN)NC(=O)[C@H](C)NC(=O)[C@H](CC(C)C)NC(=O)[C@@H](NC(=O)CNC(=O)[C@H](Cc1ccccc1)NC(=O)CN)C(C)C)C(C)C)C(C)C)C(C)C)C(=O)N[C@@H](C)C(=O)N[C@@H](CCC(=O)O)C(=O)N[C@@H](Cc1cnc[nH]1)C(=O)N[C@@H](Cc1ccccc1)C(N)=O [GFGVLAKVAAHVVPAIAEHF]

MIC [12]: 12.5 µM (≈ 23.5 µg/mL) | MIC [26]: 6.3 µM (≈ 11.8 µg/mL) | MIC [27]: 25 µM (≈ 47 µg/mL)
SMILES: CC[C@H](C)[C@H](NC(=O)[C@H](CCCCN)NC(=O)[C@@H]1CCCN1C(=O)[C@H](CC(C)C)NC(=O)[C@H](CC(C)C)NC(=O)[C@H](CO)NC(=O)CNC(=O)[C@H](CC(C)C)NC(=O)[C@H](C)NC(=O)CNC(=O)[C@H](CC(C)C)NC(=O)[C@H](CC(C)C)NC(=O)[C@H](Cc1ccccc1)NC(=O)[C@@H]1CCCN1C(=O)[C@H](Cc1ccccc1)NC(=O)[C@@H](N)Cc1ccccc1)C(=O)N[C@@H](Cc1ccccc1)C(N)=O [FFPFLLGALGSLLPKIF]

MIC [32]: 10.9 µM (≈ 16 µg/mL) | MIC [12]: 21.8 µM (≈ 32 µg/mL) | MIC [33]: 2.72 µM (≈ 3.99 µg/mL) | MIC [34]: > 21.8 µM | MIC [35]: 10.9 µM (≈ 16 µg/mL) | MIC [36]: 21.8 µM (≈ 32 µg/mL) | MIC [37]: 21.8 µM (≈ 32 µg/mL)
SMILES: CC[C@H](C)[C@@H]1NC(=O)[C@H](C(C)C)NC(=O)[C@H](C(C)C)NC(=O)[C@H]([C@@H](C)CC)NC(=O)[C@@H]2CCCN2C(=O)[C@@H](NC(=O)[C@H](CCCN=C(N)N)NC(=O)[C@@H](N)CCCN=C(N)N)CSSC[C@@H](C(=O)N[C@@H](CCCN=C(N)N)C(=O)O)NC(=O)[C@H](C(C)C)NC(=O)[C@H](CCCN=C(N)N)NC1=O [RRCPIVVIRVCR]
